The source made the active and inactive calls. No cut-off for these calls is given here.
Legend:
[1] = biological target: T1, G-protein coupled receptor 39 (Homo sapiens, UniProt O43194); assay: Agonist activity at human GPR39 receptor expressed in CHO cells assessed as increase in ca2+ flux; assay type: functional, cell-based
T1 sequence (O43194 whole entry): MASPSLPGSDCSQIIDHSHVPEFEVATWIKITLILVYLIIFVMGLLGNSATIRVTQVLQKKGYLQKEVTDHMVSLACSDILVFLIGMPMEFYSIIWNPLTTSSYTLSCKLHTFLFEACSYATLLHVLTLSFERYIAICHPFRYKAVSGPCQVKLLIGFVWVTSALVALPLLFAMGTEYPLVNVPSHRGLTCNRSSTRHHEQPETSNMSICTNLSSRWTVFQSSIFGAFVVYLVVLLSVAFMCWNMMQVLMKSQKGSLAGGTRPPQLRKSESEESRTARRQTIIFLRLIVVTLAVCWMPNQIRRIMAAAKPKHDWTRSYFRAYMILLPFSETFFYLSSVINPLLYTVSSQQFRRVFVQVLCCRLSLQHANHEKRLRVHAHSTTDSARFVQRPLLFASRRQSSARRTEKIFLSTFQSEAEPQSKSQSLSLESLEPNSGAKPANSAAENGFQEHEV

[2] = biological target: T2, G-protein coupled receptor 39 (Homo sapiens) (UniProt O43194); assay: Agonist activity at human GPR39 receptor expressed in CHO cells assessed as increase in ca2+ flux relative to Zn2+; assay type: functional, cell-based
T2 sequence (whole entry): T1 sequence (O43194 whole entry)

[3] = biological target: T1, G-protein coupled receptor 39; assay: Positive allosteric activity at human GPR39 receptor expressed in CHO cells assessed as increase in zn2+ induced ca2+ flux; assay type: cell-based
[4] = biological target: T2, G-protein coupled receptor 39 (Homo sapiens); assay: Positive allosteric activity at human GPR39 receptor expressed in CHO cells assessed as increase in zn2+ induced ca2+ flux relative to Zn2+; assay type: cell-based; conditions: filed as positive allosteric modulator
[5] = tested on: SH-SY5Y; assay: Neuroprotective activity against 6-OHDA-induced PD model of human SH-SY5Y cells assessed as increase in cell viability; assay type: functional, cell-based
[6] = tested on: SH-SY5Y; assay: Cytotoxicity in human SH-SY5Y cells assessed as decrease in cell viability at 10 uM; assay type: toxicity, cell-based
[7] = filed as positive allosteric modulator

Row | SMILES | EC50 [1] | Emax [2, 7] | EC50 [3] | other results
1 | Cc1cc(NCc2ccc(F)cc2)n2ncc(-c3ccccn3)c2n1 | 15 nM | 57% | > 27100 nM | –
2 | Cc1cc(N2CCCC2c2cccnc2)n2ncc(-c3ccccn3)c2n1 (single isomer, unassigned; enantiomer 1) [listing 1 of 2 here] | 79 nM | – | > 27100 nM | –
3 | CNC(=O)C(Nc1cc(C)nc2c(-c3ccccn3)cnn12)c1ccc(F)cc1 (racemic) | 78 nM | 75% | > 27100 nM | –
4 | Cc1cc(N2CCC(c3ccccc3)C2)n2ncc(-c3ccccn3)c2n1 (single isomer, unassigned; enantiomer 1) [listing 1 of 2 here] | > 10000 nM | – | 142 nM | –
5 | Cc1cc(NC(C)c2ccc(F)cc2)n2ncc(-c3ccccn3)c2n1 (single isomer, unassigned; enantiomer 1) [listing 1 of 2 here] | – | 51% | – | –
6 | Cc1cc(N2CCC(c3ccccc3)C2)n2ncc(-c3ccccn3)c2n1 (single isomer, unassigned; enantiomer 2) [listing 1 of 2 here] | – | – | 273 nM | EC50 ([1]; cho): > 10000 nM
7 | Cc1cc(N2CCCC2c2ccccc2)n2ncc(-c3ccccn3)c2n1 (racemic) | 17 nM | – | > 27100 nM | Emax [2]: 36%
8 | N#Cc1ccc(N2CCN(Cc3cn4cc(Cl)ccc4n3)CC2)nc1 | 6250 nM | 48% | – | –
9 | Cn1cc(-c2ccc3nc(C(N)CCOCc4ccccc4)[nH]c(=O)c3c2)cn1 (stereo not drawn) | > 50000 nM | – | 641 nM | Emax [4]: 83%
10 | CNc1cc(-c2ccccn2)nc(NC2CCCCC2)n1 | > 31600 nM | – | 487 nM | Emax [4]: 88%
11 | Cc1cc(NC(C)c2ccc(F)cc2)n2ncc(-c3ccccn3)c2n1 (single isomer, unassigned; enantiomer 2) [listing 1 of 2 here] | – | 68% | – | Activity [5]: Active
12 | CNc1nc(NCc2ccc(NS(C)(=O)=O)cc2Cl)cc(-c2ccccn2)n1 | 15 nM | 84% | > 27100 nM | Activity [5]: Active; Activity [6]: Toxic
13 | Cc1cc(N2CCCC2c2cccnc2)n2ncc(-c3ccccn3)c2n1 (single isomer, unassigned; enantiomer 2) [listing 1 of 2 here] | – | 64% | – | –
14 | O=C(Cc1nn(CC2CCC2)c(=O)c2ccccc12)NCc1ccccn1 | > 50000 nM | – | 4040 nM | Emax [4]: 49%
15 | NC(Cc1cnc[nH]1)c1nc2ccc(-c3ccccc3)cc2c(=O)[nH]1 (stereo not drawn) | > 50000 nM | – | 251 nM | Emax [4]: 102%
16 | Cc1cc(N2C(=O)CCC2c2ccccc2)n2ncc(-c3ccccn3)c2n1 (racemic) | > 31600 nM | – | > 27100 nM | –
17 | Cc1cc(NC(C)c2ccc(F)cc2)n2ncc(-c3ccccn3)c2n1 (single isomer, unassigned; enantiomer 1) [listing 2 of 2 here] | 17 nM | – | > 27100 nM | –
18 | Cc1cc(NC(C)c2ccc(F)cc2)n2ncc(-c3ccccn3)c2n1 (single isomer, unassigned; enantiomer 2) [listing 2 of 2 here] | 26 nM | – | – | EC50 ([3]; cho): > 27100 nM; Activity [6]: Toxic
19 | Cc1cc(N2CCC(c3ccccc3)C2)n2ncc(-c3ccccn3)c2n1 (single isomer, unassigned; enantiomer 2) [listing 2 of 2 here] | – | – | – | Emax [4]: 54%
20 | CNc1nc(NC2CCCCC2)cc(-c2ccccn2)n1 | 16 nM | 49% | > 27100 nM | –
21 | CNc1nc(NCc2ccccc2Cl)cc(-c2ccccn2)n1 | 3 nM | 86% | > 27100 nM | –
22 | Cc1cc(NC(C)(C)c2ccc(F)cc2)n2ncc(-c3ccccn3)c2n1 | 63 nM | – | > 27100 nM | Emax [2]: 38%
23 | Cc1cc(N2CCC(c3ccccc3)C2)n2ncc(-c3ccccn3)c2n1 (single isomer, unassigned; enantiomer 1) [listing 2 of 2 here] | – | – | – | Emax [4]: 65%
24 | Cc1cc(N2CCCC2c2cccnc2)n2ncc(-c3ccccn3)c2n1 (single isomer, unassigned; enantiomer 1) [listing 2 of 2 here] | – | 58% | – | –
25 | CNc1nc(Oc2ccccc2)cc(-c2ccccn2)n1 | 481 nM | 58% | 23 nM | Emax [4]: 48%
26 | Cc1cc(N2CCCC2c2cccnc2)n2ncc(-c3ccccn3)c2n1 (single isomer, unassigned; enantiomer 2) [listing 2 of 2 here] | 240 nM | – | – | EC50 ([3]; cho): > 27100 nM

— ChEMBL document CHEMBL5131482, “Synthesis and SAR of novel GPR39 agonists and positive allosteric modulators” (Bioorg Med Chem Lett, 2022)
